PubChem BioAssay AID330 (DTP/NCI, 2004)
“And” between values parts separate entries of the source, which are not always exact repeats. Equal values may be shown once. Inconclusive results and toxic doses are left out. The calls were made as follows: active = survival T/C of 150% or more; inactive = T/C below 125% in these data.

Test system: P388 leukemia ip, CD2F1 mice, survival T/C
Assay: NCI In Vivo Anticancer Drug Screen. Data for tumor model P388 Leukemia (intraperitoneal) in CD2F1 (CDF1) mice
Conditions: endpoint: median survival time, higher = longer survival
Outline: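 Mice carrying the transplanted tumor received test compound or vehicle. Survival was recorded in each group, and the value is the treated-group measurement divided by that of the vehicle-treated control group.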

[1] = dose: 60.0 mg/kg/injection, schedule: Q01DX005 (ip), vehicle: saline with Tween-80
[2] = dose: 120.0 mg/kg/injection, schedule: Q01DX005 (ip), vehicle: saline with Tween-80
[3] = dose: 240.0 mg/kg/injection, schedule: Q01DX005 (ip), vehicle: saline with Tween-80
[4] = dose: 50.0 mg/kg/injection, schedule: Q01DX009 (ip), vehicle: Klucel (hydroxypropylcellulose) (HPC)
[5] = dose: 100.0 mg/kg/injection, schedule: Q01DX009 (ip), vehicle: Klucel (hydroxypropylcellulose) (HPC)
[6] = dose: 200.0 mg/kg/injection, schedule: Q01DX009 (ip), vehicle: Klucel (hydroxypropylcellulose) (HPC)
[7] = dose: 50.0 mg/kg/injection, schedule: Q01DX009 (ip), vehicle: saline with Tween-80
[8] = dose: 100.0 mg/kg/injection, schedule: Q01DX009 (ip), vehicle: saline with Tween-80
[9] = dose: 200.0 mg/kg/injection, schedule: Q01DX009 (ip), vehicle: saline with Tween-80
[10] = dose: 50.0 mg/kg/injection, schedule: Q01DX005 (ip), vehicle: saline
[11] = dose: 100.0 mg/kg/injection, schedule: Q01DX005 (ip), vehicle: saline
[12] = dose: 50.0 mg/kg/injection, schedule: Q01DX005 (ip), vehicle: saline with Tween-80
[13] = dose: 100.0 mg/kg/injection, schedule: Q01DX005 (ip), vehicle: saline with Tween-80
[14] = dose: 200.0 mg/kg/injection, schedule: Q01DX005 (ip), vehicle: saline with Tween-80
[15] = dose: 50.0 mg/kg/injection, schedule: Q01DX009 (ip), vehicle: saline
[16] = dose: 100.0 mg/kg/injection, schedule: Q01DX009 (ip), vehicle: saline
[17] = dose: 200.0 mg/kg/injection, schedule: Q01DX009 (ip), vehicle: saline
[18] = dose: 12.5 mg/kg/injection, schedule: Q01DX005 (ip), vehicle: Klucel (hydroxypropylcellulose) (HPC)
[19] = dose: 50.0 mg/kg/injection, schedule: Q01DX005 (ip), vehicle: Klucel (hydroxypropylcellulose) (HPC)
[20] = dose: 100.0 mg/kg/injection, schedule: Q01DX005 (ip), vehicle: Klucel (hydroxypropylcellulose) (HPC)
[21] = dose: 25.0 mg/kg/injection, schedule: Q01DX005 (ip), vehicle: saline with Tween-80

Measured: T/C

CC(C)(C)/C(O)=C/c1nc2ccc(Cl)cc2[nH]c1=O
inactive: dose: 7.5 mg/kg/injection, schedule: Q01DX005 (ip), vehicle: Klucel + Tween-80 97 % of control | dose: 15.0 mg/kg/injection, schedule: Q01DX005 (ip), vehicle: Klucel + Tween-80 92 % of control | dose: 30.0 mg/kg/injection, schedule: Q01DX005 (ip), vehicle: Klucel + Tween-80 88 % of control | dose: 240.0 mg/kg/injection, schedule: Q01DX005 (ip), vehicle: Klucel + Tween-80 90 % of control

COC(=O)C1=[N+]([O-])OC(C(=O)OC)C1c1ccc(F)cc1 (centres undefined)
inactive: [1] 93 % of control | [2] 90 % of control | [3] 94 % of control

COC(=O)c1cc2c(cc1/C=C/C=O)OCO2
inactive: [1] 100 % of control | [2] 109 % of control | [3] 109 % of control

CCCCCCCCCCOC(=O)c1ccccc1
inactive: [4] 98 % of control | [5] 93 % of control | [6] 98 % of control

COc1ccc2c(N3CCN(C(=O)C(Cl)(Cl)Cl)CC3)cc(C)nc2c1
inactive: [1] 103 % of control | [2] 104 % of control | [3] 102 % of control

O/N=C/c1ccc2c(c1)OCO2
inactive: [7] 99 % of control | [8] 100 % of control | [9] 87 % of control

COC(=O)C(CC=C(C)C)C(C)=O (centres undefined)
inactive: [10] 101 % of control | [11] 101 % of control | dose: 200.0 mg/kg/injection, schedule: Q01DX005 (ip), vehicle: saline 105 % of control

CC(=O)Nn1nnc2ccccc2c1=O
inactive: [12] 97 % of control | [13] 110 % of control | [14] 110 % of control

CC1NC(=O)NC(=O)C1(Cl)Cl (centres undefined)
inactive: [15] 101 % of control | [16] 99 % of control and 109 % of control | [17] 100 % of control and 109 % of control

CC(C)CC1N=C(NN=C2CCCCC2)SP1(=O)NNc1ncccn1 (centres undefined)
inactive: dose: 60.0 mg/kg/injection, schedule: Q01DX005 (ip), vehicle: Klucel (hydroxypropylcellulose) (HPC) 94 % of control | dose: 120.0 mg/kg/injection, schedule: Q01DX005 (ip), vehicle: Klucel (hydroxypropylcellulose) (HPC) 97 % of control

O=[N+]([O-])c1ccc(/C=C/Br)o1
inactive: dose: 50.0 mg/kg/injection, schedule: Q01DX009 (ip), vehicle: suspension in saline 88 % of control | dose: 100.0 mg/kg/injection, schedule: Q01DX009 (ip), vehicle: suspension in saline 95 % of control | dose: 200.0 mg/kg/injection, schedule: Q01DX009 (ip), vehicle: suspension in saline 103 % of control

CC1(C)OC(C(CCl)OS(C)(=O)=O)C(C(CCl)OS(C)(=O)=O)O1 (centres undefined)
inactive: dose: 50.0 mg/kg/injection, schedule: Q04DX003 (ip), vehicle: Klucel (hydroxypropylcellulose) (HPC) 92 % of control | dose: 100.0 mg/kg/injection, schedule: Q04DX003 (ip), vehicle: Klucel (hydroxypropylcellulose) (HPC) 100 % of control | dose: 200.0 mg/kg/injection, schedule: Q04DX003 (ip), vehicle: Klucel (hydroxypropylcellulose) (HPC) 100 % of control

COc1cccc(C(=O)O)c1C(=O)O
inactive: dose: 25.0 mg/kg/injection, schedule: Q01DX009 (ip), vehicle: other 97 % of control | dose: 50.0 mg/kg/injection, schedule: Q01DX009 (ip), vehicle: other 100 % of control | dose: 100.0 mg/kg/injection, schedule: Q01DX009 (ip), vehicle: other 99 % of control | dose: 200.0 mg/kg/injection, schedule: Q01DX009 (ip), vehicle: other 106 % of control | dose: 400.0 mg/kg/injection, schedule: Q01DX009 (ip), vehicle: other 103 % of control

CC(=O)OC12CC[N+]3(C)CCCCC3C1=Nc1ccccc12 (centres undefined)
inactive: dose: 12.5 mg/kg/injection, schedule: Q01DX009 (ip), vehicle: saline 110 % of control | dose: 25.0 mg/kg/injection, schedule: Q01DX009 (ip), vehicle: saline 99 % of control

NC(N)=N/N=C/c1ccc(-c2cc3ccc(/C=N/N=C(N)N)cc3s2)cc1
inactive: [18] 114 % of control | dose: 25.0 mg/kg/injection, schedule: Q01DX005 (ip), vehicle: Klucel (hydroxypropylcellulose) (HPC) 116 % of control | [19] 121 % of control | [20] 118 % of control | dose: 200.0 mg/kg/injection, schedule: Q01DX005 (ip), vehicle: Klucel (hydroxypropylcellulose) (HPC) 107 % of control

Cc1nc(Nc2ccccc2)c(C#N)c(=O)[nH]1
inactive: [1] 86 % of control | [2] 86 % of control | [3] 86 % of control

COc1cc(C)c(OC)c(CC=C(C)CC(=O)C[C@@]2(C)CCC[C@@]2(C)C(=O)CCC(C)(C)O)c1 (mixture of isomers)
inactive: [21] 93 % of control | [12] 91 % of control | [13] 95 % of control

O=C1c2ccccc2C2(O)C(=O)c3ccccc3C12 (centres undefined)
inactive: dose: 100.0 mg/kg/injection, schedule: Q01DX001 (ip), vehicle: Klucel (hydroxypropylcellulose) (HPC) 102 % of control | dose: 200.0 mg/kg/injection, schedule: Q01DX001 (ip), vehicle: Klucel (hydroxypropylcellulose) (HPC) 105 % of control | dose: 400.0 mg/kg/injection, schedule: Q01DX001 (ip), vehicle: Klucel (hydroxypropylcellulose) (HPC) 108 % of control

CCCCCCCCCCCCCCCCS(=O)(=O)N/N=C(/c1ccccc1Cl)N1CCOCC1
inactive: [7] 92 % of control | [8] 93 % of control | [9] 94 % of control

CCN(CC)CCNc1ncnc2[nH]ncc12
inactive: [10] 106 % of control | [11] 101 % of control

CCOC(=O)c1c2n(c3ccccc13)C1(C(=O)OCC)CC1(C(C)=O)C1CN21 (centres undefined)
inactive: [21] 106 % of control | [12] 101 % of control and 108 % of control | [13] 106 % of control and 120 % of control | [14] 117 % of control and 119 % of control

O=C(O)c1cccc(-n2ncc(Cl)c(Cl)c2=O)c1
inactive: dose: 12.5 mg/kg/injection, schedule: Q01DX009 (ip), vehicle: saline with Tween-80 113 % of control | dose: 25.0 mg/kg/injection, schedule: Q01DX009 (ip), vehicle: saline with Tween-80 108 % of control | [7] 99 % of control and 104 % of control | [9] 88 % of control

N#Cc1ccc(N)cc1C#N
inactive: [4] 94 % of control | [5] 94 % of control | [6] 96 % of control

[Br][Sn]([Br])([CH2][Sn]([Br])([c]1ccccc1)[c]1ccccc1)[c]1ccccc1
inactive: [18] 124 % of control

O=c1c2c(c(=O)c(=O)c1=O)Nc1ccccc1N2
inactive: [1] 100 % of control | [2] 101 % of control | [3] 107 % of control

FC(F)(F)c1nc2nccnc2[nH]1
inactive: dose: 50.0 mg/kg/injection, schedule: Q04DX003 (ip), vehicle: saline 100 % of control | dose: 100.0 mg/kg/injection, schedule: Q04DX003 (ip), vehicle: saline 100 % of control | dose: 200.0 mg/kg/injection, schedule: Q04DX003 (ip), vehicle: saline 100 % of control

CC(N)S(=O)(=O)O (centres undefined)
inactive: [15] 104 % of control | [16] 98 % of control | [17] 104 % of control | dose: 400.0 mg/kg/injection, schedule: Q01DX009 (ip), vehicle: saline 88 % of control

COc1cccc(C(=O)NC(=O)NC(=O)c2ccccc2)c1
inactive: dose: 100.0 mg/kg/injection, schedule: Q04DX002 (ip), vehicle: saline with Tween-80 100 % of control | dose: 200.0 mg/kg/injection, schedule: Q04DX002 (ip), vehicle: saline with Tween-80 93 % of control | dose: 400.0 mg/kg/injection, schedule: Q04DX002 (ip), vehicle: saline with Tween-80 93 % of control

CCN(CC)c1ccc(NCS(=O)(=O)O)cc1
inactive: dose: 50.0 mg/kg/injection, schedule: Q04DX003 (ip), vehicle: saline sonified 95 % of control | dose: 100.0 mg/kg/injection, schedule: Q04DX003 (ip), vehicle: saline sonified 90 % of control | dose: 200.0 mg/kg/injection, schedule: Q04DX003 (ip), vehicle: saline sonified 100 % of control

CC(C)(C)c1cc(C(C)(C)C)c2oc(C(=O)O)cc(=O)c2c1
inactive: [15] 95 % of control | [16] 97 % of control

N#Cc1ncnc2nc[nH]c12
inactive: [19] 101 % of control | [20] 107 % of control

CCc1cccc(C)c1NC(=O)CCC(=O)OC
inactive: [1] 102 % of control | [2] 97 % of control | [3] 96 % of control

COc1cc(C)c(C)cc1C1(c2cc(C)c(C)cc2O)C(=O)c2ccccc2C1=O
inactive: [15] 100 % of control | [16] 93 % of control
